Reference: patent US10226474B2, “Methods and compositions for treatment of non-alcoholic steatohepatitis” (Temple University—Of The Commonwealth System of Higher …, priority 2017, dated 2019)
Read-outs that look alike come from different tables or passages of the source.

Legend:
[1] = system: NASH patients; conditions: oral dose of 150 mg, one year, cited from earlier work
[2] = system: DIAMOND™ mouse model of NASH; assay: Efficacy of fluasterone in the DIAMOND mouse model of NASH (Western Diet Sugar Water); assay type: in vivo; conditions: for mice progressed to measurable fibrosis by NASH CRN score: 24 week WDSW group 5/10
Method: DIAMOND™ (Diet Induced Animal Model of Non-alcoholic fatty liver Disease) mouse model is a mouse model of NASH. This mouse model was used to assess the effect of fluasterone. The drug formulation (subcutaneous injectable formulation) contained fluasterone as an active pharmaceutical ingredient in a vehicle. The vehicle contained RO (reverse osmosis) water mixed with sterile saline solution and 5% Tween-80. The drug formulation was prepared as follows: micronized powder of fluasterone (submicron range particles of fluasterone) was suspended in the vehicle and vortexed to evenly suspend. Two doses of fluasterone were used and compared to vehicle controls and positive and negative natural history controls to determine the impact on weight gain, fatty liver, steatohepatitis, and the progression to fibrosis. The two different doses of fluasterone used were (i) a low dose (LD) fluasterone (5 mg fluasterone/kg body weight) for 8 weeks and (ii) a high dose (HD) fluasterone (20 mg fluasterone/kg body weight) for 8 weeks. Vehicle Control was sterile saline with 5% Tween-80. The other details are as follows: (1) Animal Species: DIAMOND™ Mice (Male C57BL/6J(B6)-129s1/SvImJ(S129)). (2) Positive Control and Treatment Groups' food and drinking water: (a) Food—Western Diet ENVIGO Harlan/Teklad 42% Adjusted Calories from Fat (TD. 88137), and (b) RO Water—Sugar Water—D-fructose Alfa Aesar #A17718 and D-glucose Water—Fisher Scientific #D19-212; Recipe=231 g Fructose+189 g Glucose+750 ml RO (reverse osmosis) water Diluted into 9 L RO Water. This diet is referred to herein as Western Diet Sugar Water (WDSW). (3) Negative Control Group's food and drinking water: (a) Normal Mouse Chow Diet—ENVIGO Harlan/Teklad Normal Rodent Chow (TD 7012 Teklad LM-485), and (b) RO water. This diet is referred to herein interchangeably as Normal Diet Normal Water (NDNW) and Normal Chow Normal Water (NCNW).
Eight-two (82) DIAMOND™ mice were put on the special diet WDSW (high fat diet (Harlan/Teklad 42% fat) and sweetened water (D-Fructose and D-Glucose)) at time point 0 (t=0) (at eight weeks of age). Mice were weighed weekly. Of these, 10 mice were injected subcutaneously with fluasterone at concentration 5 mg/kg and 10 mice were injected subcutaneously with fluasterone at concentration 20 mg/kg, and 5 mice in a staggered group were injected with vehicle starting at 16 weeks on diet (t=16) until 24 weeks (t=24), as described in “Subcutaneous Injection.” For baseline controls, 8 male DIAMOND™ mice were placed on the WDSW at eight weeks of age and given no treatment; these were the positive natural history controls. A second group of 8 male DIAMOND™ mice were continued on the NCNW/NDNW at eight (8) weeks and these were the negative natural history control group. The mice were weighed weekly. At 16, 20, and 24 weeks on diet, fasting insulin was measured in serum from tail vein nick. HOMA-IR scores were calculated. 8 mice on WDSW and 8 mice NDNW were sacrificed at 16 weeks (t=16) on diet as baseline positive and negative controls. 8 mice on WDSW and 8 mice NDNW were sacrificed at 24 weeks (t=24). Carbon dioxide was used as an anesthetic and a cardiac puncture was performed for exsanguination. Cervical dislocation was performed as a secondary means of euthanasia.
As discussed above, the drug formulation used in this experiment contained fluasterone as an active pharmaceutical ingredient in a vehicle. The vehicle contained RO water mixed with sterile saline solution and 5% Tween-80.
Body Weights: Mice were weighed weekly and the weights determined the amount of test compound administered.
Subcutaneous Injection: The mice received a subcutaneous injection 1× daily. In summary, mice were grasped at the scruff of the neck and a suitable place was selected for the injection. The injection site was moved daily to ensure limited distress to the animal. […]

[3] = system: mouse diabetic model; conditions: U.S. Pat. No. 8,431,555; cited from earlier work
[4] = system: TPA-stimulated epidermal hyperplasia in mouse skin; conditions: cited from earlier work
[5] = system: NASH patients; conditions: obeticholic acid treatment; cited from earlier work
[6] = system: Nonalcoholic Steatohepatitis patients; conditions: PIVENS histologic response criteria; 0.025 considered statistically significant; cited from earlier work

CSc1ccc(C(=O)/C=C/c2cc(C)c(OC(C)(C)C(=O)O)c(C)c2)cc1 [GFT 505]
improvement in histologically-assessed NASH vs. placebo ([1]; all patients): failed to produce a statistically significant improvement
improvement in histologically-assessed NASH vs. placebo ([1]; patients with the mildest form of NASH (NAS<3) excluded): statistically significant improvement vs. placebo

C[C@]12CCCCC1=CC[C@@H]1[C@@H]2CC[C@]2(C)C(=O)[C@H](F)C[C@@H]12 [fluasterone, 16α-fluoro-5-androsten-17-one]
fasting blood ketones at necropsy ([2]; both low dose 5 mg/kg (P 0.01) and high dose 20 mg/kg (P 0.0005) vs 24 weeks WDSW): significantly lower
fasting blood glucose ([2]; both low dose 5 mg/kg and high dose 20 mg/kg s.c., 8 weeks, vs 24 weeks WDSW, P 0.003 each (FIG. 3)): significantly improved
SAF Activity score ([2]; both treatment groups vs 24 week positive controls, high dose P<0.039, low dose P<0.008 (FIG. 17)): improved the SAF scores
NAS score ([2]; both treatment groups vs 24 week positive controls, high dose P<0.05, low dose P<0.001 (FIG. 18)): improved the NAS score
lobular inflammation ([2]; both treatment groups vs 24 weeks WDSW, high dose P<0.01, low dose P<0.032 (FIG. 14)): significantly reduced inflammation
serum triglycerides ([2]; fluasterone-treated mice vs WDSW): no significant difference
total serum cholesterol ([2]; fluasterone-treated mice vs WDSW positive controls, low dose P=0.0504): lower total serum cholesterol
liver weight vs WDSW positive control ([2]; high dose 20 mg/kg s.c. 1x daily for 8 weeks (weeks 16-24 on WDSW), P=0.054): smaller livers compared to the WDSW 24 wk control group
fibrosis (NASH CRN) ([2]; high dose 20 mg/kg vs 24 week positive controls, P=0.15): not statistically less fibrotic although there was a trend
alkaline phosphatase (ALP) ([2]; high dose 20 mg/kg vs WDSW control, P=0.058): strong trend to improvement
mice that progressed to NASH ([2]; high dose 20 mg/kg, 24 week WDSW control 10/10, baseline (16 weeks) 5/10): 5/10
mice progressed to measurable fibrosis by NASH CRN score ([2]; high dose 20 mg/kg): 2/10
perisinusoidal fibrosis ([2]; high dose 20 mg/kg, P value of 0.052): almost statistically significant
fasting insulin (ELISA) ([2]; low and high dose groups vs WDSW positive control, baseline (16 weeks) and end of study (24 weeks)): not statistically significant between drug treated groups and WDSW positive control
HOMA IR ([2]; low and high dose groups vs positive WDSW control, data not shown): comparable between the positive WDSW control and the drug treated groups
steatosis grade ([2]; low and high dose groups vs positive controls): neither treatment group had improved steatosis grade
necropsy body weight ([2]; low dose 5 mg/kg and high dose 20 mg/kg s.c., 8 weeks, vs 24 week WDSW): comparable to the 24 week positive WDSW controls
liver weight vs WDSW positive control ([2]; low dose 5 mg/kg s.c. 1x daily for 8 weeks (weeks 16-24 on WDSW), P=0.12): smaller livers than the WDSW positive control group, however the difference was not statistically significant
AST ([2]; low dose 5 mg/kg vs 24 week WDSW, P=0.10): statistically significant drop in AST
hepatocyte ballooning ([2]; low dose 5 mg/kg vs 24 week positive control, P=0.026): statistically less ballooning
fibrosis (NASH CRN) ([2]; low dose 5 mg/kg vs 24 week positive controls, P=0.057): lower than the 24 week positive controls
alkaline phosphatase (ALP) ([2]; low dose 5 mg/kg vs WDSW control, P=0.01): significantly lower
steatosis percentage ([2]; low dose 5 mg/kg vs positive controls, P=0.032): statistically significantly less steatosis percentage
mice that developed NASH ([2]; low dose 5 mg/kg, 24 week WDSW control 10/10, baseline (16 weeks) 5/10): 7/10
mice progressed to measurable fibrosis by NASH CRN score ([2]; low dose 5 mg/kg): 1/10
perisinusoidal fibrosis ([2]; low dose 5 mg/kg, P=0.002): significantly less perisinusoidal fibrosis
ALT ([2]; treated mice vs 24 week positive control, P 0.11 (low dose) and 0.051 (high dose)): strong trend towards improved ALT (lower ALT)
hyperglycemia [3]: effective in reducing hyperglycemia
effective dose abolishing TPA-stimulated epidermal hyperplasia ([4]; oral): at least 200 mg/kg
lowest effective dose abolishing TPA-stimulated epidermal hyperplasia ([4]; subcutaneous injection): 2.5 mg/kg

CC[C@H]1[C@@H](O)[C@@H]2[C@H](CC[C@]3(C)[C@@H]([C@H](C)CCC(=O)O)CC[C@@H]23)[C@@]2(C)CC[C@@H](O)C[C@@H]12 [obeticholic acid]
insulin sensitivity [5]: decrease in insulin sensitivity
plasma LDL and total cholesterol [5]: significant increase

Vitamin E
histologic improvement compared with placebo [6]: significant histologic improvement compared with placebo
